# Reference: ChEMBL document CHEMBL1944578, “Synthesis and anticonvulsant activity of novel 2,6-diketopiperazine derivatives. Part 2: Perhydropyrido[1,2-a]pyrazines” (Eur J Med Chem, 2012)
# Activity calls are given as the source filed them. The calls are words filed in the database; no cut-off is given here.
# What was measured:
# [1] = tested on: Mus musculus; assay: Anticonvulsant activity in Carworth farms No.1 albino mouse assessed as protection against subcutaneous metrazole-induced seizures at 30 mg/kg, ip measured after 4 hrs; type: functional, organism-based; set-up: dose 30 mg/kg
# [2] = tested on: Mus musculus; assay: Anticonvulsant activity in Carworth farms No.1 albino mouse assessed as protection against subcutaneous metrazole-induced seizures at 300 mg/kg, ip measured after 4 hrs; type: functional, organism-based; set-up: dose 300 mg/kg
# [3] = tested on: Mus musculus; assay: Anticonvulsant activity in Carworth farms No.1 albino mouse assessed as protection against 6 Hz electric current-induced seizure at 100 mg/kg, ip measured after 1 hrs; type: functional, organism-based; set-up: dose 100 mg/kg
# [4] = tested on: Mus musculus; assay: Neurotoxicity in Carworth farms No.1 albino mouse assessed as neurological impairment at 100 mg/kg, ip measured after 1 hr; type: toxicity, organism-based; set-up: dose 100 mg/kg, route intraperitoneal; settings: in vivo
# [5] = tested on: Mus musculus; assay: Anticonvulsant activity in Carworth farms No.1 albino mouse assessed as protection against subcutaneous metrazole-induced seizures at 100 mg/kg, ip measured after 0.5 hrs; type: functional, organism-based; set-up: dose 100 mg/kg
# [6] = tested on: Mus musculus; assay: Anticonvulsant activity in Carworth farms No.1 albino mouse assessed as protection against maximum electroshock at 100 mg/kg, ip measured after 0.5 hrs; type: functional, organism-based; set-up: dose 100 mg/kg
# [7] = tested on: Mus musculus; assay: Anticonvulsant activity in Carworth farms No.1 albino mouse assessed as protection against subcutaneous metrazole-induced seizures at 100 mg/kg, ip measured after 4 hrs; type: functional, organism-based; set-up: dose 100 mg/kg
# [8] = tested on: Mus musculus; assay: Anticonvulsant activity in Carworth farms No.1 albino mouse assessed as protection against subcutaneous metrazole-induced seizures at 30 mg/kg, ip measured after 0.5 hrs; type: functional, organism-based; set-up: dose 30 mg/kg
# [9] = tested on: Mus musculus; assay: Anticonvulsant activity in Carworth farms No.1 albino mouse assessed as protection against 6 Hz electric current-induced seizure at 100 mg/kg, ip measured after 0.5 hrs; type: functional, organism-based; set-up: dose 100 mg/kg
# [10] = tested on: Mus musculus; assay: Anticonvulsant activity in Carworth farms No.1 albino mouse assessed as protection against subcutaneous metrazole-induced seizures at 300 mg/kg, ip measured after 0.5 hrs; type: functional, organism-based; set-up: dose 300 mg/kg
# [11] = tested on: Mus musculus; assay: Anticonvulsant activity in Carworth farms No.1 albino mouse assessed as protection against 6 Hz electric current-induced seizure at 100 mg/kg, ip measured after 0.25 hrs; type: functional, organism-based; set-up: dose 100 mg/kg
# [12] = tested on: Mus musculus; assay: Anticonvulsant activity in Carworth farms No.1 albino mouse assessed as protection against 6 Hz electric current-induced seizure at 100 mg/kg, ip measured after 2 hrs; type: functional, organism-based; set-up: dose 100 mg/kg
# [13] = tested on: Mus musculus; assay: Neurotoxicity in Carworth farms No.1 albino mouse assessed as neurological impairment at 300 mg/kg, ip measured after 4 hrs; type: toxicity, organism-based; set-up: dose 300 mg/kg, route intraperitoneal; settings: in vivo
# [14] = tested on: Mus musculus; assay: Neurotoxicity in Carworth farms No.1 albino mouse assessed as neurological impairment at 30 mg/kg, ip measured after 4 hrs; type: toxicity, organism-based; set-up: dose 30 mg/kg, route intraperitoneal; settings: in vivo
# [15] = tested on: Mus musculus; assay: Neurotoxicity in Carworth farms No.1 albino mouse assessed as neurological impairment at 30 mg/kg, ip measured after 0.5 hrs; type: toxicity, organism-based; set-up: dose 30 mg/kg, route intraperitoneal; settings: in vivo
# [16] = tested on: Mus musculus; assay: Anticonvulsant activity in Carworth farms No.1 albino mouse assessed as protection against maximum electroshock at 30 mg/kg, ip measured after 0.5 hrs; type: functional, organism-based; set-up: dose 30 mg/kg
# [17] = tested on: Mus musculus; assay: Neurotoxicity in Carworth farms No.1 albino mouse assessed as neurological impairment at 100 mg/kg, ip measured after 2 hr; type: toxicity, organism-based; set-up: dose 100 mg/kg, route intraperitoneal; settings: in vivo
# [18] = tested on: Mus musculus; assay: Neurotoxicity in Carworth farms No.1 albino mouse assessed as neurological impairment at 100 mg/kg, ip measured after 4 hrs; type: toxicity, organism-based; set-up: dose 100 mg/kg, route intraperitoneal; settings: in vivo
# [19] = tested on: Mus musculus; assay: Anticonvulsant activity in Carworth farms No.1 albino mouse assessed as protection against maximum electroshock at 300 mg/kg, ip measured after 0.5 hrs; type: functional, organism-based; set-up: dose 300 mg/kg
# [20] = tested on: Mus musculus; assay: Anticonvulsant activity in Carworth farms No.1 albino mouse assessed as protection against maximum electroshock at 300 mg/kg, ip measured after 4 hrs; type: functional, organism-based; set-up: dose 300 mg/kg
# [21] = tested on: Mus musculus; assay: Neurotoxicity in Carworth farms No.1 albino mouse assessed as neurological impairment at 300 mg/kg, ip measured after 0.5 hrs; type: toxicity, organism-based; set-up: dose 300 mg/kg, route intraperitoneal; settings: in vivo
# [22] = tested on: Mus musculus; assay: Anticonvulsant activity in Carworth farms No.1 albino mouse assessed as protection against maximum electroshock at 30 mg/kg, ip measured after 4 hrs; type: functional, organism-based; set-up: dose 30 mg/kg
# [23] = tested on: Mus musculus; assay: Neurotoxicity in Carworth farms No.1 albino mouse assessed as neurological impairment at 100 mg/kg, ip measured after 0.25 hrs; type: toxicity, organism-based; set-up: dose 100 mg/kg, route intraperitoneal; settings: in vivo
# [24] = tested on: Mus musculus; assay: Neurotoxicity in Carworth farms No.1 albino mouse assessed as neurological impairment at 100 mg/kg, ip measured after 0.5 hrs; type: toxicity, organism-based; set-up: dose 100 mg/kg, route intraperitoneal; settings: in vivo
# [25] = tested on: Mus musculus; assay: Anticonvulsant activity in Carworth farms No.1 albino mouse assessed as protection against 6 Hz electric current-induced seizure at 100 mg/kg, ip measured after 4 hrs; type: functional, organism-based; set-up: dose 100 mg/kg
# [26] = tested on: Mus musculus; assay: Anticonvulsant activity in Carworth farms No.1 albino mouse assessed as protection against maximum electroshock at 100 mg/kg, ip measured after 4 hrs; type: functional, organism-based; set-up: dose 100 mg/kg
# [27] = species: Mus musculus; assay: Anticonvulsant activity in electric shock-induced Carworth farms No.1 albino mouse assessed as time of peak effect; type: functional
# [28] = tested on: Mus musculus; assay: Anticonvulsant activity in ip dosed Carworth farms No.1 albino mouse assessed as protection against 6 Hz electric current-induced seizure measured after 0.25 hrs; type: functional
Compound,Activity [1],Activity [2],Activity [4],Activity [5],Activity [6],Activity [7],Activity [8],Activity [10],Activity [13],Activity [14],Activity [15],Activity [16],Activity [17],Activity [18],Activity [19],Activity [20],Activity [21],Activity [22],Activity [23],Activity [24],other results
O=C1NC(=O)[C@@H](c2ccccc2)N2CCCC[C@@H]12,inactive,inactive,Non-toxic,inactive,inactive,inactive,inactive,inactive,Non-toxic,Non-toxic,Non-toxic,inactive,Non-toxic,Non-toxic,inactive,inactive,Non-toxic,inactive,Non-toxic,Non-toxic,Activity [3]: inactive; Activity [9]: inactive; Activity [11]: inactive; Activity [12]: inactive; Activity [25]: inactive; Activity [26]: inactive
CC[C@@H](C(N)=O)N1CCCC1=O [LEVETIRACETAM],,,,,,,,,,,,,,,,,,,,,Time [27]: 1 h
Cl.O=C1[C@H](c2ccccc2)N2CCCC[C@H]2C(=O)N1CCc1ccccc1,,,Non-toxic,,,,,,Non-toxic,Non-toxic,Non-toxic,,Non-toxic,Non-toxic,,,Non-toxic,,Non-toxic,Non-toxic,
O=C1[C@H](c2ccccc2)N2CCCC[C@H]2C(=O)N1CCc1ccccc1 [listing 1 of 2 here],inactive,inactive,,inactive,inactive,inactive,inactive,inactive,,,,inactive,,,inactive,inactive,,inactive,,,Activity [3]: inactive; Activity [9]: Active; Activity [11]: Active; Activity [12]: inactive; Activity [25]: inactive; Activity [26]: inactive
O=C1CN2CCCC[C@H]2C(=O)N1,inactive,inactive,Non-toxic,inactive,inactive,inactive,inactive,inactive,Non-toxic,Non-toxic,Non-toxic,inactive,Non-toxic,Non-toxic,inactive,inactive,Non-toxic,inactive,Non-toxic,Non-toxic,Activity [3]: Active; Activity [9]: inactive; Activity [11]: Active; Activity [12]: inactive; Activity [25]: inactive; Activity [26]: inactive
Cl.O=C1[C@H]2CCCCN2[C@H](c2ccccc2)C(=O)N1CCc1ccccc1,,,Non-toxic,,,,,,Non-toxic,Non-toxic,Non-toxic,,Non-toxic,Non-toxic,,,Non-toxic,,Non-toxic,Non-toxic,Time [27]: 0.25 h; ED50 [28]: 78.5 mg/kg
O=C1[C@H]2CCCCN2[C@H](c2ccccc2)C(=O)N1CCc1ccccc1 [listing 1 of 2 here],,,Non-toxic,,,,,,Non-toxic,Non-toxic,Non-toxic,,Non-toxic,Non-toxic,,,Non-toxic,,Non-toxic,Non-toxic,
Cl.O=C1[C@H]2CCCCN2[C@H](c2ccccc2)C(=O)N1Cc1ccccc1,inactive,inactive,,inactive,inactive,inactive,inactive,inactive,Non-toxic,Non-toxic,Non-toxic,inactive,,Non-toxic,Active,Active,Toxic,inactive,,Non-toxic,Activity [26]: inactive
O=C1[C@H](c2ccccc2)N2CCCC[C@H]2C(=O)N1CCc1ccccc1 [listing 2 of 2 here],,,,,,,,,Non-toxic,Non-toxic,Non-toxic,,,Non-toxic,,,Non-toxic,,,Non-toxic,
O=C1[C@H]2CCCCN2[C@@H](c2ccccc2)C(=O)N1Cc1ccccc1,inactive,inactive,Non-toxic,inactive,inactive,inactive,inactive,inactive,Non-toxic,Non-toxic,Non-toxic,inactive,Non-toxic,Non-toxic,inactive,inactive,Non-toxic,inactive,Non-toxic,Non-toxic,Activity [3]: inactive; Activity [9]: inactive; Activity [11]: inactive; Activity [12]: inactive; Activity [25]: inactive; Activity [26]: inactive
O=C1CN2CCCC[C@@H]2C(=O)N1,inactive,inactive,Non-toxic,inactive,inactive,inactive,inactive,inactive,Non-toxic,Non-toxic,Non-toxic,inactive,Non-toxic,Non-toxic,inactive,inactive,Non-toxic,inactive,Non-toxic,Non-toxic,Activity [3]: Active; Activity [9]: Active; Activity [11]: inactive; Activity [12]: inactive; Activity [25]: inactive; Activity [26]: inactive
O=C1[C@H]2CCCCN2[C@H](c2ccccc2)C(=O)N1CCc1ccccc1 [listing 2 of 2 here],inactive,inactive,,inactive,inactive,inactive,inactive,inactive,,,,inactive,,,inactive,inactive,,inactive,,,Activity [25]: inactive; Activity [26]: inactive
